Results on 21 compounds are retold here after patent US20230399312A1, “SUBSTITUTED PYRIMIDINES AND METHODS OF USE” (THERAVANCE BIOPHARMA R&D IP, LLC, priority 2020, published 2023).

Assay [1] deals with T1, recombinant human ALK5 (TGF-βR1) protein (Homo sapiens, UniProt P36897).
T1 construct: purchased Life Technologies PR9075A
T1 sequence (P36897 34-503): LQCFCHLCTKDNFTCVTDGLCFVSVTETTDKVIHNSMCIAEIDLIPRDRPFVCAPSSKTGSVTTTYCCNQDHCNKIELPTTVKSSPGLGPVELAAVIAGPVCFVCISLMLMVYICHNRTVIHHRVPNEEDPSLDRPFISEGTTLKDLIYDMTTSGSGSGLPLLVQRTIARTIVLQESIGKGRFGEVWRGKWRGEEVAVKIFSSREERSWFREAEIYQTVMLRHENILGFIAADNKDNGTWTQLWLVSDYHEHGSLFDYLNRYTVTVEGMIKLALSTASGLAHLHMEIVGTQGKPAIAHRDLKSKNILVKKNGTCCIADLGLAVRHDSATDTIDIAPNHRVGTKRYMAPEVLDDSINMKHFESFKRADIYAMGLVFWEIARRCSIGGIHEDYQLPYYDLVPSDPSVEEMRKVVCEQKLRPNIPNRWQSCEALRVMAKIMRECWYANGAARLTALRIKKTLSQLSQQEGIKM
The assay can be described thus: Biochemical ALK5 (TGF-βR1) assay to measure pKi (LANCE Ultra ULight kinase assay). The following applies: apparent pKi, converted from pIC50 by Cheng-Prusoff. The method in brief: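 Read-out was LANCE Ultra TR-FRET with a europium anti-phospho-Topo IIα Thr1342 antibody after EDTA quench. Kinase reaction ran 60 min at 37 °C with ATP added from a 125 μM 5× stock, after 60 min compound–enzyme equilibration at room temperature. Values are pKi from Cheng-Prusoff conversion of fitted pIC50.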
A general note: In TR-FRET formats the signal depends on donor and acceptor labels being close together.

The subject of assay [2] is TGF-β-stimulated SMAD3 phosphorylation in BEAS-2B cells. The assay can be described thus: Cellular ALK5 potency assay, inhibition of TGF-β stimulated pSMAD3 formation in BEAS-2B cells. The format is cell-based. The following applies: Homo sapiens, pSMAD3, TGF-β 10 ng/mL, read-out: BEAS2B pIC50 (converted). The method in brief: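 Human lung epithelial BEAS-2B cells were pre-treated with compound for 1 h at 37 °C, then stimulated with TGF-β (final 10 ng/mL) for 30 min before lysis. pSMAD3 was quantified by AlphaLISA and pIC50 derived from dose-dependent signal change versus TGF-β-stimulated untreated cells.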

Molecules are shown by their SMILES.

In the case of `Cc1cccc(-c2nccc(Nc3ccnc(Nc4ccc(F)c(CN5C6CCC5CNC6)c4)n3)n2)n1` [Compound 384, N2-[3-(3,8-diazabicyclo[3.2.1]octan-8-ylmethyl)-4-fluoro-phenyl]-N4-[2-(6-methyl-2-pyridyl)pyrimidin-4-yl]pyrimidine-2,4-diamine], the Ki in assay [1] is 0.0398 to 0.316 nM. For the same compound, the IC50 in assay [2] was 25.1 to 158 nM.

On to `Cc1cccc(-c2nccc(Nc3ccnc(Nc4cccc(NC(=O)CC5CNC5)c4)n3)n2)n1` [Compound 385, 2-(azetidin-3-yl)-N-[3-[[4-[[2-(6-methyl-2-pyridyl)pyrimidin-4-yl]amino]pyrimidin-2-yl]amino]phenyl]acetamide], for which the Ki in assay [1] was at most 0.0316 nM. In addition, the IC50 in assay [2] was 25.1 to 158 nM.

Take `Cc1cccc(-c2nccc(Nc3ccnc(Nc4csc(C(=O)O)c4)n3)n2)n1` [Compound 386, 4-[[4-[[2-(6-methyl-2-pyridyl)pyrimidin-4-yl]amino]pyrimidin-2-yl]amino]thiophene-2-carboxylic acid]: the Ki in assay [1] was 0.398 to 3.16 nM. For the same compound, in assay [2], the IC50 is 1580 to 10000 nM.

As to `Cc1cccc(-c2nccc(Nc3ccnc(Nc4ccc(C(=O)NC5CNC5)cc4)n3)n2)n1` [Compound 387, N-(azetidin-3-yl)-4-[[4-[[2-(6-methyl-2-pyridyl)pyrimidin-4-yl]amino]pyrimidin-2-yl]amino]benzamide], in assay [1], the Ki was 0.0398 to 0.316 nM. In assay [2], the IC50 is at most 20 nM.

For `Cc1cccc(-c2nccc(Nc3ccnc(Nc4ccc(CO)cc4)n3)n2)n1` [Compound 388, [4-[[4-[[2-(6-methyl-2-pyridyl)pyrimidin-4-yl]amino]pyrimidin-2-yl]amino]phenyl]methanol], the Ki in assay [1] is 0.398 to 3.16 nM. Further, in assay [2], the IC50 was at most 20 nM.

For the compound `Cc1cccc(-c2nccc(Nc3ccnc(Nc4cc(C(=O)N5CCNCC5)cs4)n3)n2)n1` [Compound 389, [5-[[4-[[2-(6-methyl-2-pyridyl)pyrimidin-4-yl]amino]pyrimidin-2-yl]amino]-3-thienyl]-piperazin-1-yl-methanone], the Ki in assay [1] was 0.0398 to 0.316 nM. Also, in assay [2], the IC50 is 25.1 to 158 nM.

With `Cc1cccc(-c2nccc(Nc3ccnc(Nc4cnn(CCC5CCNCC5)c4)n3)n2)n1` [Compound 390, N4-[2-(6-methyl-2-pyridyl)pyrimidin-4-yl]-N2-[1-[2-(4-piperidyl)ethyl]pyrazol-4-yl]pyrimidine-2,4-diamine], the Ki in assay [1] was 0.0398 to 0.316 nM. Moreover, in assay [2], the IC50 is 200 to 1260 nM.

Regarding `Cc1cccc(-c2nccc(Nc3ccnc(Nc4nc(CN5C[C@@H](C)N[C@@H](C)C5)cs4)n3)n2)n1` [Compound 391, N4-[2-(6-methyl-2-pyridyl)pyrimidin-4-yl]-N2-[4-[[rac-(3R,5S)-3,5-dimethylpiperazin-1-yl]methyl]thiazol-2-yl]pyrimidine-2,4-diamine], the Ki in assay [1] was 0.398 to 3.16 nM. In assay [2], the IC50 was 25.1 to 158 nM.

With `Cc1cccc(-c2nccc(Nc3ccnc(Nc4ccc(CN5CC(OCCO)C5)cc4)n3)n2)n1` [Compound 392, 2-[1-[[4-[[4-[[2-(6-methyl-2-pyridyl)pyrimidin-4-yl]amino]pyrimidin-2-yl]amino]phenyl]methyl]azetidin-3-yl]oxyethanol], the Ki in assay [1] was 0.0398 to 0.316 nM. Further, the IC50 in assay [2] was 25.1 to 158 nM.

Consider `Cc1cccc(-c2nccc(Nc3ccnc(Nc4ccc(N5CCC(N(C)CC(C)C)CC5)cc4)n3)n2)n1` [Compound 393, N2-[4-[4-[isobutyl(methyl)amino]-1-piperidyl]phenyl]-N4-[2-(6-methyl-2-pyridyl)pyrimidin-4-yl]pyrimidine-2,4-diamine], for which, in assay [1], the Ki is 0.0398 to 0.316 nM. Also, the IC50 in assay [2] is 25.1 to 158 nM.

Regarding `Cc1cccc(-c2nccc(Nc3ccnc(Nc4ccc(N5CCC(N(C)C)CC5)cc4)n3)n2)n1` [Compound 394, N2-[4-[4-(dimethylamino)-1-piperidyl]phenyl]-N4-[2-(6-methyl-2-pyridyl)pyrimidin-4-yl]pyrimidine-2,4-diamine], the Ki in assay [1] was 0.0398 to 0.316 nM. The IC50 in assay [2] was 200 to 1260 nM.

With `Cc1cccc(-c2nccc(Nc3ccnc(Nc4ccc(CN5CC6CCC(C5)O6)cc4)n3)n2)n1` [Compound 395, N4-[2-(6-methyl-2-pyridyl)pyrimidin-4-yl]-N2-[4-(8-oxa-3-azabicyclo[3.2.1]octan-3-ylmethyl)phenyl]pyrimidine-2,4-diamine], the Ki in assay [1] is 0.0398 to 0.316 nM. Moreover, the IC50 in assay [2] was 25.1 to 158 nM.

In the case of `Cc1cccc(-c2nccc(Nc3ccnc(Nc4cccc(C(=O)N5CCN(C)CC5)c4)n3)n2)n1` [Compound 396, (4-methylpiperazin-1-yl)-[3-[[4-[[2-(6-methyl-2-pyridyl)pyrimidin-4-yl]amino]pyrimidin-2-yl]amino]phenyl]methanone], in assay [1], the Ki was 0.398 to 3.16 nM. Besides, in assay [2], the IC50 was 25.1 to 158 nM.

`Cc1cccc(-c2nccc(Nc3ccnc(Nc4ccc(N5CCC(N6CCOCC6)CC5)cc4)n3)n2)n1` [Compound 397, N4-[2-(6-methyl-2-pyridyl)pyrimidin-4-yl]-N2-[4-(4-morpholino-1-piperidyl)phenyl]pyrimidine-2,4-diamine]: the Ki in assay [1] is 0.0398 to 0.316 nM. Also, the IC50 in assay [2] was 25.1 to 158 nM.

Consider `Fc1ccc(Cl)cc1-c1nccc(Nc2ccnc(Nc3ccc(N4CCNCC4)cc3)n2)n1` [Compound 398, N4-[2-(5-chloro-2-fluoro-phenyl)pyrimidin-4-yl]-N2-(4-piperazin-1-ylphenyl)pyrimidine-2,4-diamine], for which the Ki in assay [1] was 0.0398 to 0.316 nM. Besides, in assay [2], the IC50 is 25.1 to 158 nM.

With `Fc1ccccc1-c1nccc(Nc2ccnc(Nc3ccc(N4CCOCC4)cc3)n2)n1` [Compound 399, N4-[2-(2-fluorophenyl)pyrimidin-4-yl]-N2-(4-morpholinophenyl)pyrimidine-2,4-diamine], the Ki in assay [1] is 3.98 to 31.6 nM. The IC50 in assay [2] was 25.1 to 158 nM.

As to `Cc1cccc(-c2nccc(Nc3ccnc(Nc4ccc(CN5CCC[C@@H](C(=O)OCC6CNC6)C5)cc4)n3)n2)n1` [Compound 400, azetidin-3-ylmethyl (R)-1-(4-((4-((2-(6-methylpyridin-2-yl)pyrimidin-4-yl)amino)pyrimidin-2-yl)amino)benzyl)piperidine-3-carboxylate], the Ki in assay [1] was 0.0398 to 0.316 nM. For the same compound, the IC50 in assay [2] is 25.1 to 158 nM.

With `COCCc1ccc(Nc2nccc(Nc3ccnc(-c4cccc(C)n4)n3)n2)cc1` [Compound 401, N2-[4-(2-methoxyethyl)phenyl]-N4-[2-(6-methyl-2-pyridyl)pyrimidin-4-yl]pyrimidine-2,4-diamine], in assay [1], the Ki is 0.398 to 3.16 nM. Besides, in assay [2], the IC50 is 25.1 to 158 nM.

With `Cc1cccc(-c2nccc(Nc3ccnc(Nc4ccc(N5CCNCC5CC(=O)OCC5CNC5)cc4)n3)n2)n1` (stereo not drawn) [Compound 402, azetidin-3-ylmethyl 2-[1-[4-[[4-[[2-(6-methyl-2-pyridyl)pyrimidin-4-yl]amino]pyrimidin-2-yl]amino]phenyl]piperazin-2-yl]acetate], in assay [1], the Ki is 0.398 to 3.16 nM. Moreover, in assay [2], the IC50 was 200 to 1260 nM.

Regarding `Cc1cccc(-c2nccc(Nc3ccnc(Nc4ccc(N5CCN[C@@H](CO)C5)cc4)n3)n2)n1` [Compound 403, (R)-(4-(4-((4-((2-(6-methylpyridin-2-yl)pyrimidin-4-yl)amino)pyrimidin-2-yl)amino)phenyl)piperazin-2-yl)methanol], in assay [1], the Ki is 0.0398 to 0.316 nM. Besides, in assay [2], the IC50 is 25.1 to 158 nM.

Take `Cc1cccc(-c2nccc(Nc3ccnc(Nc4nc(C(=O)N[C@@H]5CCNC5)cs4)n3)n2)n1` [Compound 404, 2-[[4-[[2-(6-methyl-2-pyridyl)pyrimidin-4-yl]amino]pyrimidin-2-yl]amino]-N-[(3R)-pyrrolidin-3-yl]thiazole-4-carboxamide]: in assay [1], the Ki is at most 0.0316 nM. For the same compound, in assay [2], the IC50 is 25.1 to 158 nM.
